Laboratory results as given in article PMC8050276, “Estradiol analogs attenuate autophagy, cell migration and invasion by direct and selective inhibition of TRPML1, independent of estrogen receptors” (Scientific Reports, 2021).
Several values for one entry are separate records, joined by “and”; a condition that tells them apart may be missing. Equal entries are not always repeated. Where two headings read alike, the source gives them in different places.

Key:
hTRPML3-YFP = target: T1, hTRPML3-YFP (Homo sapiens, UniProt Q8TDD5); test: Fluo-4 Ca2+ influx assay, HEK293 stably expressing hTRPML3-YFP, activated with ML-SA1; assay type: cell-based; settings: for IC50: Fluo-4, 5 µM ML-SA1, Table S1, read-out: TRPML3 IC50; for inhibitory effect on TRPML3: 12.5 µM compound, 5 µM ML-SA1, Fig. 1f
T1 construct: expressed in transfected cells
Procedure: (§1) To identify inhibitors of TRPML1 and TRPML3, the Spectrum Collection compound library (MS Discoveries; 2000 compounds) and additional 430 bioactive compounds were screened. To this end, fluorometric Ca^2+ influx assays were performed by using the calcium dye Fluo-4/AM (Invitrogen, Thermo Fisher Scientific, Waltham, MA, USA) and a custom-made fluorescence imaging plate reader built into a robotic liquid handling station (Freedom Evo 150, Tecan, Männedorf, Switzerland). All measurements were done in a HEPES buffered solution (HBS), containing 132 mM NaCl, 6 mM KCl, 1 mM MgCl2, 1 mM CaCl2, 5.5 mM D-glucose, 10 mM HEPES, pH 7.4. Screening compounds dissolved in DMSO (10 mM) were prediluted in 150 mM NaCl, 20 mM HEPES, pH 7.4, to a concentration of 200 µM. For primary screens, HEK293 stably expressing plasma membrane-targeted TRPML1 or TRPML3 were trypsinized and resuspended in cell culture medium supplemented with 4 µM Fluo-4/AM. After incubation at 37 °C for 30 min, the cell suspension was briefly centrifuged resuspended in HBS, and dispensed into black pigmented, clear-bottom 384-well microwell plates (Greiner μClear, Frickenhausen, Germany). Plates were placed into the FLIPR and fluorescence signals (excitation 470 nm, emission 515 nm) were recorded with a Zyla 5.5 camera (Andor, Belfast, UK) and the μManager software like previously described. In a first video, compound libraries were successively added to the cells with the Tecan 96-tip multichannel arm to a final concentration of 20 µM to map unspecific effects like autofluorescence or toxicity. In a second step the agonist ML-SA1 was pipetted in each well and fluorescence signals were recorded for 10 min. Analyses were done by calculating fluorescence intensities for each well and background areas with ImageJ (National Institutes of Health, Bethesda, MD, USA). Finally, the background was subtracted and the fluorescence intensities were normalized to initial intensities (F/F0). Concentration response curves were generated by the same procedure but compounds were manually prediluted in 96-well plates containing HBS, now supplemented with 0.1% bovine serum albumin. Here data was fitted to a four-parameter Hill equation to obtain Imin, Imax, IC50), and the Hill coefficient n.

hTRPML1∆NC-YFP [1] = target: hTRPML1∆NC-YFP (Homo sapiens, UniProt Q9GZU1); assay type: cell-based; settings: for inhibitory effect on TRPML1: 12.5 µM compound, 5 µM ML-SA1, Fig. 1f; for TRPML1-inhibitory activity, SAR summary: random screening or consecutive experiments
Procedure: as §1, with “All measurements were done in a HEPES buffered solution (HBS), containing 132 mM NaCl, 6 mM KCl, 1 mM MgCl2, 1 mM CaCl2, 5.5 mM D-glucose, 10 mM HEPES, pH 7.4.” left out

hTRPML1∆NC-YFP [2] = assay type: cell-based, human; settings: for TRPML1:TRPML2 fold selectivity / TRPML1:TRPML3 fold selectivity: ratio of Fluo-4 IC50 values; for primary screen result: 20 µM compound, 5 µM ML-SA1, TRPML1 and TRPML3; for TRPML1 versus TRPML3 selectivity: Fluo-4, TRPML1 vs TRPML3, 5 µM ML-SA1
Procedure: as §1, with “All measurements were done in a HEPES buffered solution (HBS), containing 132 mM NaCl, 6 mM KCl, 1 mM MgCl2, 1 mM CaCl2, 5.5 mM D-glucose, 10 mM HEPES, pH 7.4.” left out

hTRPML2-YFP = target: T2, hTRPML2-YFP (Homo sapiens, UniProt Q8IZK6); test: Fluo-4 Ca2+ influx assay, HEK293 stably expressing hTRPML2-YFP, activated with ML-SA1; assay type: cell-based; settings: TRPML2 IC50, Fluo-4, 5 µM ML-SA1, Table S1
T2 construct: expressed in transfected cells
T2 sequence (Q8IZK6 1-566): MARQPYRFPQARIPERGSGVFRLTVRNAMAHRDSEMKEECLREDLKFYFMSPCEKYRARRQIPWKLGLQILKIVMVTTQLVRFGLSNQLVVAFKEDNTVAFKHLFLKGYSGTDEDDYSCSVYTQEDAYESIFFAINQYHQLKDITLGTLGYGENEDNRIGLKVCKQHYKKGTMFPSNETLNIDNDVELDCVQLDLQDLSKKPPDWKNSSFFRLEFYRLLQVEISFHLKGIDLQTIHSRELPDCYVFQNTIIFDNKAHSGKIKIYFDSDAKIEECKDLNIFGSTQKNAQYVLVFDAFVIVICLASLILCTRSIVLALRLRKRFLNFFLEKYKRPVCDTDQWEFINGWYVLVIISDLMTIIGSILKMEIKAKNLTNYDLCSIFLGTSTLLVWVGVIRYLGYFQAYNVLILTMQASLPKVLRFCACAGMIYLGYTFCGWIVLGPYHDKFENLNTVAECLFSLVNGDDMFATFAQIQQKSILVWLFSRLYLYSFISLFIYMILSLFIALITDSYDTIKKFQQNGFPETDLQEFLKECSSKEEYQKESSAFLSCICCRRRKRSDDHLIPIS

[3] = read-out: TRPML1 IC50, Fluo-4, 5 µM ML-SA1, Fig. 2a/4, Table S1
[4] = read-out: TRPML1 IC50, concentration-response retest of screening hits and steroids, Fluo-4, 5 µM ML-SA1, Fig. 1b-e, S1

Sequence of hTRPML1∆NC-YFP (Homo sapiens, UniProt Q9GZU1) (Q9GZU1 whole entry): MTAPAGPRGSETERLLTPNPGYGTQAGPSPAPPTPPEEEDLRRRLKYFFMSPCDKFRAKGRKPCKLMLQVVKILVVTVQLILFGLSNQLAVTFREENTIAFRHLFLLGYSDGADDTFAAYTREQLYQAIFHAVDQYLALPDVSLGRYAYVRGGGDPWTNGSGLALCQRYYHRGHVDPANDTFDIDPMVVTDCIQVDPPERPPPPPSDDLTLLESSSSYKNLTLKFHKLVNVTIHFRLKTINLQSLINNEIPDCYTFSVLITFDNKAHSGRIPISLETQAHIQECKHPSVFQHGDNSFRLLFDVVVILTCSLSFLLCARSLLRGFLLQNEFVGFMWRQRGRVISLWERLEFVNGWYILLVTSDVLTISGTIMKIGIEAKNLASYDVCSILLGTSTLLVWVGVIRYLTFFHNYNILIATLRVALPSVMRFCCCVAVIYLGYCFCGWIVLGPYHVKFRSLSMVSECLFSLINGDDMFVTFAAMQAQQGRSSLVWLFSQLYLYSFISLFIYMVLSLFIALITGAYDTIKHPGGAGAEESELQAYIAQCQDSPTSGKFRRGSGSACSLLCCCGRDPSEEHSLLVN
T1 sequence (Q8TDD5 whole entry): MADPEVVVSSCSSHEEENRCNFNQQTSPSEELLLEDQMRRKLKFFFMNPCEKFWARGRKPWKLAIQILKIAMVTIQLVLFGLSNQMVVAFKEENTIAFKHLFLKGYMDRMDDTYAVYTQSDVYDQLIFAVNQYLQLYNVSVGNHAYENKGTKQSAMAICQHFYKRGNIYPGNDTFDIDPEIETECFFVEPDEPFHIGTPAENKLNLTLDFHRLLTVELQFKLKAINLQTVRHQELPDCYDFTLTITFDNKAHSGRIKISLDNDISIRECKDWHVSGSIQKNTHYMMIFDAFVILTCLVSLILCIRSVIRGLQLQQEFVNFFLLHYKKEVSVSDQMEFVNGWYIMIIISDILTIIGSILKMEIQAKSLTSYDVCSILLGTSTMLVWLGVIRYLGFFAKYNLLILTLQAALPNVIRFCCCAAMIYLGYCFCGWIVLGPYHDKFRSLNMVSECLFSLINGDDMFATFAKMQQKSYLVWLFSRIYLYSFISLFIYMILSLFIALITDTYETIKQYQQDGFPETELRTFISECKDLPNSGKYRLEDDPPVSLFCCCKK

| Compound | IC50 (hTRPML3-YFP) | IC50 (hTRPML1∆NC-YFP [1]; [3]) | TRPML1:TRPML2 fold selectivity (hTRPML1∆NC-YFP [2]) | TRPML1:TRPML3 fold selectivity (hTRPML1∆NC-YFP [2]) | IC50 (hTRPML2-YFP) | inhibitory effect on TRPML1 (hTRPML1∆NC-YFP [1]) | inhibitory effect on TRPML3 (hTRPML3-YFP) | further results |
| --- | --- | --- | --- | --- | --- | --- | --- | --- |
| CC(C)Oc1ccc2c(c1)CC[C@@H]1[C@@H]2CC[C@]2(C)[C@@H](O)CC[C@@H]12 [PRU-6] | 7.87 µM | 0.41 µM | 8.71 fold | 19.2 fold | 3.57 µM |  |  |  |
| C[C@]12CC[C@H]3[C@@H](CCC4=CC(=O)CC[C@@]43C)[C@@H]1CC[C@@H]2O [testosterone, reference compound] |  |  |  |  |  | much weaker inhibitory effects |  |  |
| O=C(O)CCCCCCCCCCCC[C@@H]1C=CCC1 [chaulmoorgic acid, reference compound] |  |  |  |  |  |  |  | primary screen result (hTRPML1∆NC-YFP [2]): TRPML1 selective hit |
| C[C@]12CC[C@@H]3c4ccc(OS(=O)(=O)C(F)(F)F)cc4CC[C@H]3[C@@H]1CC[C@@H]2O [PRU-9] | 5.96 µM | 0.17 µM | 14.88 fold | 35.06 fold | 2.53 µM |  |  | TRPML isoform selectivity profile (hTRPML1∆NC-YFP [2]; TRPML1, 2, 3 and TPC2, Fluo-4): further improved selectivity profile compared to EDME |
| C[C@]12CC[C@@H]3c4ccc(O)cc4C[C@@H](CCCCCCCCC[S+]([O-])CCCC(F)(F)C(F)(F)F)[C@H]3[C@@H]1CC[C@@H]2O (stereo partly drawn) [fulvestrant, reference compound] |  |  |  |  |  | no effect | no effect |  |
| C#C[C@]1(O)CC[C@H]2[C@@H]3CCc4cc(OC)ccc4[C@H]3CC[C@@]21C [mestranol, reference compound] |  |  |  |  |  | strongest effect |  | TRPML1-inhibitory activity, SAR summary (hTRPML1∆NC-YFP [1]): considerable activity; TRPML1 versus TRPML3 selectivity (hTRPML1∆NC-YFP [2]): stronger inhibitory effects on TRPML1 than on TRPML3 |
| C[C@]12CCC(=O)C=C1CC[C@@H]1[C@@H]2[C@@H](O)C[C@@]2(C)[C@H]1CC[C@]2(O)C(=O)CO [hydrocortisone, reference compound] |  |  |  |  |  | no effect | no effect |  |
| COc1ccc2c(c1)CC[C@@H]1[C@@H]2CC[C@]2(C)C(=O)CC[C@@H]12 [estrone 3-methyl ether, reference compound] |  |  |  |  |  | no effect | no effect |  |
| CC(=O)O[C@@H]1C=C[C@]2(C)C(C[C@@H](OC(C)=O)[C@]3(C)C4=CC(=O)O[C@H](c5ccoc5)[C@@]4(C)CCC23)C1(C)C (stereo partly drawn) [DGA, deoxygedunol acetate, reference compound] |  |  |  |  |  |  |  | primary screen result (hTRPML1∆NC-YFP [2]): TRPML1 selective hit |
| C=C1C[C@H]2[C@@H]3C=C(C)C4=CC(=O)CC[C@]4(C)[C@H]3CC[C@]2(C)[C@@]1(OC(C)=O)C(C)=O [MGA, melengestrol acetate, reference compound] |  |  |  |  |  |  |  | IC50 (hTRPML1∆NC-YFP [1]; [4]): 19 µM and 18.6 µM; primary screen result (hTRPML1∆NC-YFP [2]): TRPML1 selective hit; TRPML1 versus TRPML3 selectivity (hTRPML1∆NC-YFP [2]): highly TRPML1-selective |
| C[C@]12CC[C@@H]3c4ccc(-c5ccccc5)cc4CC[C@H]3[C@@H]1CC[C@@H]2O [PRU-11] | 32.1 µM | 0.44 µM | 5.45 fold | 72.98 fold | 2.4 µM |  |  |  |
| C=CCOc1ccc2c(c1)CC[C@@H]1[C@@H]2CC[C@]2(C)[C@@H](O)CC[C@@H]12 [PRU-7] | 15.2 µM | 0.73 µM | 3.62 fold | 20.82 fold | 2.64 µM |  |  |  |
| C[C@]12CC[C@@H]3c4ccc(OC(F)F)cc4CC[C@H]3[C@@H]1CC[C@@H]2O [PRU-4] | 4.78 µM | 0.5 µM | 10.25 fold | 9.37 fold | 5.23 µM |  |  |  |
| C[C@]12CC[C@@H]3c4ccc(O)cc4CC[C@H]3[C@@H]1CCC2=O [estrone, reference compound] |  |  |  |  |  | no effect | no effect |  |
| CCOc1ccc2c(c1)CC[C@@H]1[C@@H]2CC[C@]2(C)[C@@H](O)CC[C@@H]12 [PRU-5] | 14.9 µM | 0.8 µM | 4.45 fold | 19.58 fold | 3.38 µM |  |  |  |
| C[C@]12CCC3c4ccc(OS(=O)(=O)[O-])cc4CCC3C1CC[C@H]2O.[Na+] (stereo partly drawn) [estradiol-3-sulfate sodium salt, reference compound] |  |  |  |  |  |  |  | TRPML1-inhibitory activity, SAR summary (hTRPML1∆NC-YFP [1]): eliminated TRPML1-inhibitory activity |
| C#C[C@]1(O)CC[C@H]2[C@@H]3CCc4cc(O)ccc4[C@H]3CC[C@@]21C [ethinylestradiol, reference compound] |  |  |  |  |  |  |  | TRPML1-inhibitory activity, SAR summary (hTRPML1∆NC-YFP [1]): only weakly active; TRPML1 versus TRPML3 selectivity (hTRPML1∆NC-YFP [2]): stronger inhibitory effects on TRPML1 than on TRPML3 |
| CC(=O)[C@H]1CC[C@H]2[C@@H]3CCC4=CC(=O)CC[C@]4(C)[C@H]3CC[C@]12C [progesterone, reference compound] |  |  |  |  |  | much weaker inhibitory effects |  | IC50 (hTRPML1∆NC-YFP [1]; [4]): 12 µM |
| C#CC1(O)CC[C@H]2[C@@H]3CCC4=CC(=O)CC[C@@H]4[C@H]3CC[C@@]21CC (mixture of isomers) [norgestrel, reference compound] |  |  |  |  |  | no effect | no effect |  |
| CC(C)CCC[C@@H](C)[C@H]1CC[C@H]2[C@@H]3CC=C4C[C@@H](O)CC[C@]4(C)[C@H]3CC[C@]12C [cholesterol, reference compound] |  |  |  |  |  | no effect | no effect |  |
